According to US20120021519A1, “EFFICIENT INDUCTION OF PLURIPOTENT STEM CELLS USING SMALL MOLECULE COMPOUNDS” (PRESIDENTS AND FELLOWS OF HARVARD COLLEGE, priority 2008, published 2012):
“And” between values parts separate entries of the source, which are not always exact repeats. Equal values may be shown once. “Also recorded” adds a separate entry of the source. Read-outs that look alike come from different tables or passages of the source.

Assays:
[1] = test system: stable Oct4::GFP-negative intermediate cell lines (OKM); test: Chemical reprogramming of stable intermediate cell lines from Oct4, Klf4, cMyc MEFs; assay type: cell-based, mouse
Procedure: (§1) Oct4::GFP-negative colonies in Oct4, Klf4, and cMyc or Oct4, Klf4, cMyc, and Sox2-infected MEF cultures were picked, plated on irradiated feeders, and single colonies were picked after 1 week. The resulting cell lines were passaged with trypsin and grown in mES media on feeders until passage 4, at which time they were treated with RepSox (25 μM), AZA (500 μM), or both for 48 hours. Oct4::GFP+colonies were scored 12 days after the beginning of chemical treatment.

[2] = test system: stable Oct4::GFP-negative intermediate cell lines (OKMS); test: Chemical reprogramming of stable intermediate cell lines from Oct4, Klf4, cMyc, Sox2 MEFs; assay type: cell-based, mouse
Procedure: as §1

[3] = test system: Oct4, Klf4, cMyc, and Sox2-infected MEFs; test: Reprogramming efficiency with all four factors; assay type: cell-based, mouse
Procedure: (§2) Moloney-based retroviral vectors (pMXs) expressing the murine complementary DNAs of Oct4, Sox2, c-Myc, and Klf4 were obtained from Addgene. These plasmids were transfected separately into individual populations of Plat-E packaging cells using Fugene 6, with 27 μl of Fugene 6 and 9 μg of DNA per 10 cm dish of Plat-E cells. Viral supernatants were obtained 48-72 hours post-transfection, filtered through a 0.22 μm filter, diluted 1:1 in MEF growth media, and supplemented with polybrene at a final concentration of 5 μg/ml. The supernatants for the four factors were mixed in an equimolar ratio, and media was used in place of a factor when it was omitted from the infection. MEFs were infected with two to three pools of viral supernatant during a 72-hour period. The first day that viral supernatant was termed “day 1 post-infection.”
(§3) Retroviral infection and compound or antibody treatment was performed as in the original chemical screen. To quantify the numbers of GFP+colonies produced in
(§4) different conditions, the number of colonies in each well was counted and at least 2 different wells were counted and averaged. Concentrations of compounds and antibodies were the following: VPA (Sigma)-2 mM, RepSox (Calbiochem)-25 μM, E-616451 (Calbiochem)-3 μM, EI-275 (Biomol)-3 SB-431542 (Sigma)-25 μM, TgfβIIspecific antibody (R&D Systems, AB-12-NA)-10 μg/ml, pan-Tgβ antibody (R&D Systems, AB-100-NA)-10 μg/ml. Unless otherwise noted, all chemical treatments were continuous from initial administration at day 4-5 post-infection until GFP+colonies were scored. Fresh chemical was added at each media change.

[4] = test system: Klf4, cMyc, and Sox2-infected Oct4::GFP MEFs; test: Oct4 replacement: Oct4::GFP+ colonies in Klf4, cMyc, Sox2-infected MEFs; assay type: cell-based, mouse
Procedure: as §2
(§5) On day 4 post-infection, infected MEFs were trypsinized and re-seeded on irradiated feeders in 96-well plates at 2000 cells/well and cultured in mouse ES cell media (Knockout DMEM supplemented with 15% Hyclone FBS, L-glutamine, penicillin/streptomycin, nonessential amino acids, β-mercaptoethanol, and 1000 U/ml LIF). The next day, compound stock solutions diluted in DMSO and, where applicable, VPA (Sigma), were added at a final concentration of 1 μM and 2 mM, respectively. VPA was removed after 1 week, and compound was re-applied every other day with each media change. Plates were scored for GFP+colonies after 11 of compound treatment.
The inventors re-iterated their screen to find small molecules that could replace Oct4 (FIG. 27A). The inventors modified their approach slightly and screened in normal mES culture media containing a higher concentration of VPA (2 mM). After transducing 7500 MEFs with the four reprogramming transgenes and treating with VPA, the inventors observed only ˜125 GFP+ colonies (FIG. 27C). […] Therefore we opted to continue the screen under these conditions.
Following transduction with only Klf4, cMyc, and Sox2, 2000 MEFS were cultured for 25 days in the presence of VPA and each compound from the chemical library (FIG. 27A). […] Additionally, Ropivacaine, a compound that both antagonizes Na^+-channels and that also activates p38 mitogen-activated protein kinase (MAPK)(25)(FIG. 27B), induced more than 10 colonies that had mES-like morphologies, but were not GFP+(FIG. 27C).

[5] = test system: Oct4, Klf4, and cMyc-infected Oct4::GFP MEFs; test: Sox2 replacement: Oct4::GFP+ colony formation in Oct4, Klf4, cMyc-infected MEFs; assay type: cell-based, mouse
Procedure: MEFs were derived from E12.5 embryos hemizygous for the Oct4::GFP transgenic allele. Gonads and internal organs were removed before processing the embryos for MEF isolation. MEFs were grown in DMEM supplemented with 10% FBS and penicillin/streptomycin. Low passage (up to passage 3) MEFs were used for generation of iPS cells.
as §2, §5
Infections and VPA/compound addition was done as in the original chemical screen, and wells were scored for GFP+ colonies on day 25 after compound addition.
as §3, §4

[6] = test system: Oct4, cMyc and Sox2-infected Oct4::GFP MEFs; test: Klf4 replacement: Oct4::GFP+ colonies in Oct4, cMyc, Sox2-infected MEFs; assay type: cell-based, mouse
Procedure: as §2
as §5, with “VPA was removed after 1 week, and compound was re-applied every other day with each media change.” left out, “treatment. […]” for “treatment.”

Nanog = Nanog expression in partially reprogrammed intermediate cell lines; assay type: cell-based, mouse; conditions: lines OKM 10 and OKMS 7, 48 hours
Procedure: Cells were grown to near confluence on an irradiated layer and RNA was isolated with Trizol (Invitrogen). RNA was amplified and labeled with biotin using the Illumina Total Prep RNA Amplification Kit from Ambion, hybridized to Illumina Whole-Genome Expression BeadChips (MouseRef-8), and analyzed by an Illumina Beadstation 500. All lines were analyzed in biological duplicate or triplicate. Data were processed using Resolver software.

[7] = test system: MEFs transduced with Oct4, Klf4, and Sox2; test: cMyc replacement: Oct4::GFP+ colonies in the absence of cMyc; assay type: cell-based, mouse
Procedure: as §2, §3
different conditions, the number of colonies in each well was counted and at least 2 different wells were counted and averaged. […] Unless otherwise noted, all chemical treatments were continuous from initial administration at day 4-5 post-infection until GFP+colonies were scored. […]

Tgf-β signaling = conditions: reference 32; cited from earlier work

Nc1ncn([C@@H]2O[C@H](CO)[C@@H](O)[C@H]2O)c(=O)n1 [AZA, 5-aza-cytidine]
lines reprogrammed out of 10 OKM intermediate lines ([1]; 48 hours treatment): none
Oct4::GFP+ colonies in line OKM 10 ([1]; 48 hours, then 14 days culture): Neither chemical induced formation of Oct4::GFP+colonies
Oct4::GFP expression in RepSox-responsive OKMS lines ([2]; 48 hours treatment and 12 subsequent days): none of the RepSox-responsive cell lines expressed Oct4::GFP
lines reprogrammed out of 9 OKMS intermediate lines ([2]; 48 hours treatment at passage 4): one

CCCCN1CCCCC1C(=O)Nc1c(C)cccc1C (stereo not drawn) [Bupivacaine]
effect on reprogramming efficiency with all four iPS factors [3]: not enhanced
effect on reprogramming efficiency with all four iPS factors ([3]; listed as Bupivocaine): do not increase the efficiency of reprogramming
Oct4::GFP+ colonies in the absence of VPA ([4]; larger scale): independently induced GFP+colonies

c1ccc(-c2n[nH]cc2-c2ccnc3ccccc23)nc1 [E-616451, [3-(Pyridin-2-yl)-4-(4-quinoyl)]-1H-pyrazole]
effect on reprogramming efficiency with all four iPS factors [3]: not enhanced; also recorded: do not increase the efficiency of reprogramming
rate of GFP+ colony formation with VPA ([5]; 1500 MEFs, + VPA, E-616452 25 μM, E-616451 3 μM, EI-275 3 μM): comparable to normal retroviral transduction with Sox2
GFP+ colonies with mES-like morphology in primary screen ([5]; 2000 cells per well, compound 1 μM, 2 mM VPA for first 7 days, scored after 16 days): induced GFP+colonies
concentration at which found to be most potent in reprogramming ([5]; E-616451 and EI-275 +VPA): 3 µM
optimal concentration for Oct4::GFP+ colony formation ([5]; compound titration, 2 mM of VPA in all wells (FIG. 7)): greater than 1 μM
GFP+ colonies in the absence of VPA ([5]; no VPA): could not induce the appearance of GFP+colonies

O=C(O)c1cc(NCc2cc(O)ccc2O)ccc1O [HDBA, Lavendustin C]
effect on reprogramming efficiency with all four iPS factors [3]: do not increase the efficiency of reprogramming
GFP+ colonies with mES-like morphology in Klf4 replacement screen ([6]; 2000 cells per well, 25 days, scored after 30 days): hit compounds
induction of GFP+ colonies and dependence on VPA ([6]; larger scale validation): both with and without VPA

CCCN1CCCC[C@H]1C(=O)Nc1c(C)cccc1C [Ropivacaine]
effect on reprogramming efficiency with all four iPS factors [3]: do not increase the efficiency of reprogramming
colonies becoming Oct4::GFP+ after added 5-aza-cytidine ([4]; VPA, then 5-aza-cytidine for 48 hours): majority of these colonies became Oct4::GFP+
formation of GFP+ colonies, dependence on VPA and 5-aza-cytidine ([4]; larger scale): only when used in conjunction with VPA and 5-aza-cytidine
colonies with mES-like morphologies but not GFP+ ([4]; screen with VPA): more than 10

NC(=O)c1ccc(-c2nc(-c3ccc4c(c3)OCO4)c(-c3ccccn3)[nH]2)cc1 [SB431542, 4-(5-benzo[1,3]dioxol-5-yl-4-pyridin-2-yl-1H-imidazol-2-yl)-benzamide]
effect on reprogramming efficiency with all four iPS factors [3]: do not increase the efficiency of reprogramming
Nanog expression versus untreated control (Nanog): strongly increased
reprogramming efficiency in the absence of cMyc [7]: increased reprogramming efficiency
GFP+ colonies per 7500 cells plated ([5]; 25 μM): −10
concentration required for complete Tgf-β inhibition (Tgf-β signaling): greater than 1 μM

COC1=C[C@@H]2[C@@H]3Cc4ccc(OC)c(O)c4C2(CCN3C)CC1=O [Sinomenine]
effect on reprogramming efficiency with all four iPS factors ([3]; listed as Simomenine): not enhanced
effect on reprogramming efficiency with all four iPS factors ([3]; listed as Sinimonine): do not increase the efficiency of reprogramming
GFP+ colonies in Oct4 replacement screen ([4]; 2000 MEFs, 25 days, VPA 2 mM): induced GFP+colonies
Oct4::GFP+ colonies in the absence of VPA ([4]; larger scale): failed to induce Oct4::GFP+colonies
Oct4::GFP+ colonies in the presence of VPA ([4]; larger scale): induced Oct4::GFP+colonies

CCCC(CCC)C(=O)O [VPA, valproic acid]
increase in the number of GFP+ colonies over the untreated control [3]: greater than 10 fold
GFP+ colonies per 7500 MEFs in medium with VPA ([3]; four transgenes + VPA): 100-200 and ~125
GFP+ colonies with VPA alone ([5]; 1500 MEFs, VPA only, no Sox2): no GFP+colonies were observed
